Results as given in patent US10941152B2, “Pyrazole compounds as modulators of FSHR and uses thereof” (TOCOPHERX, INC., priority 2014, dated 2021).

Key:
[1] = target: T1, follicle-stimulating hormone (FSH) receptor (Rattus norvegicus, UniProt P20395); assay: Rat granulosa EC50 FSH (Assay B); assay type: cell-based
T1 construct: endogenous in cells; host or cells: rat granulosa cells
T1 sequence (P20395 18-692): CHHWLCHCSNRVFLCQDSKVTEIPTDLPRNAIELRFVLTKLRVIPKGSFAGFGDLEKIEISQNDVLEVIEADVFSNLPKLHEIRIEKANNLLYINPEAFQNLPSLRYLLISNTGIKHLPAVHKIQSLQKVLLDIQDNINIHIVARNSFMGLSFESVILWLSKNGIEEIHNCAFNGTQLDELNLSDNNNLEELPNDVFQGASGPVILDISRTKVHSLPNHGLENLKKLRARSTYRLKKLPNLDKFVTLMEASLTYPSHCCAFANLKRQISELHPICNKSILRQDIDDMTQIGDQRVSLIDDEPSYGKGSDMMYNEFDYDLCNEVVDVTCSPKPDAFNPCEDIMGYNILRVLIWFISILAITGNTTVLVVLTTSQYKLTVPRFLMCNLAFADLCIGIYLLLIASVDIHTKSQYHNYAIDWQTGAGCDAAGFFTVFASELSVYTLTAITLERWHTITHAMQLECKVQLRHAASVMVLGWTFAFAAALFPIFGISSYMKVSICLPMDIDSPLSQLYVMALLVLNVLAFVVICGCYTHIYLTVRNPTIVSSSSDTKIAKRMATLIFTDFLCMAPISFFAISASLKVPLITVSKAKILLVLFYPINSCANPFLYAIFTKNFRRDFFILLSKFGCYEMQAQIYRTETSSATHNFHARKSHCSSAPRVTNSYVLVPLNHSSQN
Description: Example 25. Rat granulosa EC50 FSH (Assay B)
The assay was performed pursuant to the teaching of Yanofsky et al. (2006) Allosteric activation of the follicle-stimulating hormone (FSH) receptor by selective, nonpeptide agonists (JBC 281(19): 13226-13233, which is incorporated by reference in the disclosure of the invention).

[2] = target: T2, FSHR (Homo sapiens, UniProt P23945); assay: EC50 of cyclic AMP production in CHO FSHR cells + EC20 FSH (Assay A); assay type: cell-based; details: cyclic AMP production in CHO FSHR cells + EC20 FSH (0.265 pM), HTRF
T2 construct: expressed in transfected cells; host or cells: CHO (Cho-FSHR-LUC-1-1-43)
T2 sequence (P23945 18-695): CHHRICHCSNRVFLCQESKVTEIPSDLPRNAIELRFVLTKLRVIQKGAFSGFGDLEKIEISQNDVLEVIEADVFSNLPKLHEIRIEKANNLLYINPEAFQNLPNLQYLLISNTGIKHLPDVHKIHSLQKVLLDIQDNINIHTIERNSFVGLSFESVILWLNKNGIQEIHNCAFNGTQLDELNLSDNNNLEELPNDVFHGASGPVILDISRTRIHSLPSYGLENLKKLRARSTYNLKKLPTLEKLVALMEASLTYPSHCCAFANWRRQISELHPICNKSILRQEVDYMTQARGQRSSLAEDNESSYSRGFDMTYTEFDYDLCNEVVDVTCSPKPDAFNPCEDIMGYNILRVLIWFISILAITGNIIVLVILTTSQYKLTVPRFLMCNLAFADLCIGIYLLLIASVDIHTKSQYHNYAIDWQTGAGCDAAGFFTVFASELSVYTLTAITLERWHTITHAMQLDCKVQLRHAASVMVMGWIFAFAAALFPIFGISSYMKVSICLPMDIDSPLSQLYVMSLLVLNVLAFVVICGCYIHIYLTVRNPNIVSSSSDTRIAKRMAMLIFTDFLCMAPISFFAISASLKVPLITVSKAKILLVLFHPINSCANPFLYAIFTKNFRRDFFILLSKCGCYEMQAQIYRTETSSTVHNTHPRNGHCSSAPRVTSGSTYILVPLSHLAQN
Method in brief: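 cAMP was detected by HTRF as the 665/620 nm ratio. The CHO-FSHR cells had first been exposed for 1 h at 37° C to test compound together with 0.265 pM FSH (EC20) and 200 μM IBMX. Responses are given as percent of the FSH standard maximum.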

| SMILES | EC50 [1] | EC50 [2] |
| --- | --- | --- |
| COc1cc(Cl)cc(-n2nc(C(=O)N(C)C(C)(C)C)c3c2-c2cc(-c4cnn(CCO)c4)c(OC)cc2OC3)c1 [Compound 79, N-tert-butyl-1-(3-chloro-5-methoxyphenyl)-8-(1-(2-hydroxyethyl)-1H-pyrazol-4-yl)-7-methoxy-N-methyl-1,4-dihydrochromeno[4,3-c]pyrazole-3-carboxamide] | 0.101 to 0.5 µM | 0.01 to 0.1 µM |
| COc1cc2c(cc1-c1cc(F)cc(CO)c1)-c1c(c(C(=O)N(C)C(C)(C)C)nn1-c1cc(Cl)cc(Cl)c1)CO2 [Compound 80, N-tert-butyl-1-(3,5-dichlorophenyl)-8-(3-fluoro-5-(hydroxymethyl)phenyl)-7-methoxy-N-methyl-1,4-dihydrochromeno[4,3-c]pyrazole-3-carboxamide] | 0.101 to 0.5 µM | < 0.01 µM |
| COc1cc2c(cc1-c1cnn(CC(=O)O)c1)-c1c(c(C(=O)N(C)C(C)(C)C)nn1-c1cc(Cl)cc(Cl)c1)CO2 [Compound 81, 2-(4-(3-(tert-butyl(methyl)carbamoyl)-1-(3,5-dichlorophenyl)-7-methoxy-1,4-dihydrochromeno[4,3-c]pyrazol-8-yl)-1H-pyrazol-1-yl)acetic acid] | 0.101 to 0.5 µM | 0.01 to 0.1 µM |
| COc1cc2c(cc1-c1cc(C(=O)O)ccc1F)-c1c(c(C(=O)N(C)C(C)(C)C)nn1-c1cc(Cl)cc(Cl)c1)CO2 [Compound 82, 3-(3-(tert-butyl(methyl)carbamoyl)-1-(3,5-dichlorophenyl)-7-methoxy-1,4-dihydrochromeno[4,3-c]pyrazol-8-yl)-4-fluorobenzoic acid] | > 0.5 µM | < 0.01 µM |
| COc1cc2c(cc1-c1cc(F)cc(C(=O)O)c1)-c1c(c(C(=O)N(C)C(C)(C)C)nn1-c1cc(Cl)cc(Cl)c1)CO2 [Compound 83, 3-(3-(tert-butyl(methyl)carbamoyl)-1-(3,5-dichlorophenyl)-7-methoxy-1,4-dihydrochromeno[4,3-c]pyrazol-8-yl)-5-fluorobenzoic acid] | 0.101 to 0.5 µM | < 0.01 µM |
| COc1cc2c(cc1-c1cnn(CC(=O)O)c1)-c1c(c(C(=O)N3CCOCC3(C)C)nn1-c1cc(F)cc(Cl)c1)CO2 [Compound 84, 2-(4-(1-(3-chloro-5-fluorophenyl)-3-(3,3-dimethylmorpholine-4-carbonyl)-7-methoxy-1,4-dihydrochromeno[4,3-c]pyrazol-8-yl)-1H-pyrazol-1-yl)acetic acid] | 0.101 to 0.5 µM | 0.01 to 0.1 µM |
| COc1cc(Cl)cc(-n2nc(C(=O)N(C)C(C)(C)C)c3c2-c2cc(-c4cnn(CC(=O)O)c4)c(OC)cc2OC3)c1 [Compound 85, 2-(4-(3-(tert-butyl(methyl)carbamoyl)-1-(3-chloro-5-methoxyphenyl)-7-methoxy-1,4-dihydrochromeno[4,3-c]pyrazol-8-yl)-1H-pyrazol-1-yl)acetic acid] | > 0.5 µM | 0.01 to 0.1 µM |
| COc1cc(Cl)cc(-n2nc(C(=O)N3CCOCC3(C)C)c3c2-c2cc(-c4cnn(CC(=O)O)c4)c(OC)cc2OC3)c1 [Compound 86, 2-(4-(1-(3-chloro-5-methoxyphenyl)-3-(3,3-dimethylmorpholine-4-carbonyl)-7-methoxy-1,4-dihydrochromeno[4,3-c]pyrazol-8-yl)-1H-pyrazol-1-yl)acetic acid] | 0.101 to 0.5 µM | < 0.01 µM |
| COc1cc2c(cc1-c1cnn(CC(=O)O)c1)-c1c(c(C(=O)N(C)C(C)(C)C)nn1-c1cc(F)cc(F)c1)CO2 [Compound 87, 2-(4-(3-(tert-butyl(methyl)carbamoyl)-1-(3,5-difluorophenyl)-7-methoxy-1,4-dihydrochromeno[4,3-c]pyrazol-8-yl)-1H-pyrazol-1-yl)acetic acid] | 0.101 to 0.5 µM | 0.01 to 0.1 µM |
| COc1cc2c(cc1-c1cnn(CC(=O)O)c1)-c1c(c(C(=O)N3CCOCC3(C)C)nn1-c1cc(F)cc(F)c1)CO2 [Compound 88, 2-(4-(1-(3,5-difluorophenyl)-3-(3,3-dimethylmorpholine-4-carbonyl)-7-methoxy-1,4-dihydrochromeno[4,3-c]pyrazol-8-yl)-1H-pyrazol-1-yl)acetic acid] | 0.101 to 0.5 µM | 0.01 to 0.1 µM |
| COc1cc(F)cc(-n2nc(C(=O)N3CCOCC3(C)C)c3c2-c2cc(-c4cnn(CC(=O)O)c4)c(OC)cc2OC3)c1 [Compound 89, 2-(4-(3-(3,3-dimethylmorpholine-4-carbonyl)-1-(3-fluoro-5-methoxyphenyl)-7-methoxy-1,4-dihydrochromeno[4,3-c]pyrazol-8-yl)-1H-pyrazol-1-yl)acetic acid] | 0.101 to 0.5 µM | < 0.01 µM |
| COc1cc2c(cc1-c1cnn(CC(=O)N(C)C)c1)-c1c(c(C(=O)N(C)C(C)(C)C)nn1-c1cc(Cl)cc(Cl)c1)CO2 [Compound 90, N-tert-butyl-1-(3,5-dichlorophenyl)-8-(1-(2-(dimethylamino)-2-oxoethyl)-1H-pyrazol-4-yl)-7-methoxy-N-methyl-1,4-dihydrochromeno[4,3-c]pyrazole-3-carboxamide] | 0.101 to 0.5 µM | < 0.01 µM |
| CNC(=O)Cn1cc(-c2cc3c(cc2OC)OCc2c(C(=O)N(C)C(C)(C)C)nn(-c4cc(Cl)cc(Cl)c4)c2-3)cn1 [Compound 91, N-tert-butyl-1-(3,5-dichlorophenyl)-7-methoxy-N-methyl-8-(1-(2-(methylamino)-2-oxoethyl)-1H-pyrazol-4-yl)-1,4-dihydrochromeno[4,3-c]pyrazole-3-carboxamide] | 0.01 to 0.1 µM | < 0.01 µM |
| COc1cc2c(cc1-c1cnn(CC(=O)N(C)C)c1)-c1c(c(C(=O)N3CCOCC3(C)C)nn1-c1cc(Cl)cc(Cl)c1)CO2 [Compound 92, 2-(4-(1-(3,5-dichlorophenyl)-3-(3,3-dimethylmorpholine-4-carbonyl)-7-methoxy-1,4-dihydrochromeno[4,3-c]pyrazol-8-yl)-1H-pyrazol-1-yl)-N,N-dimethylacetamide] | 0.01 to 0.1 µM | < 0.01 µM |
| COc1cc2c(cc1-c1cc(C(N)=O)ccc1F)-c1c(c(C(=O)N(C)C(C)(C)C)nn1-c1cc(Cl)cc(Cl)c1)CO2 [Compound 93, N-tert-butyl-8-(5-carbamoyl-2-fluorophenyl)-1-(3,5-dichlorophenyl)-7-methoxy-N-methyl-1,4-dihydrochromeno[4,3-c]pyrazole-3-carboxamide] | 0.01 to 0.1 µM | < 0.01 µM |
| CNC(=O)c1cncc(-c2cc3c(cc2OC)OCc2c(C(=O)N4CCOCC4(C)C)nn(-c4cc(Cl)cc(Cl)c4)c2-3)c1 [Compound 94, 5-(1-(3,5-dichlorophenyl)-3-(3,3-dimethylmorpholine-4-carbonyl)-7-methoxy-1,4-dihydrochromeno[4,3-c]pyrazol-8-yl)-N-methylnicotinamide] | < 0.01 µM | < 0.01 µM |
| COc1cc2c(cc1-c1cnn(CC(=O)N3CCC3)c1)-c1c(c(C(=O)N(C)C(C)(C)C)nn1-c1cc(Cl)cc(Cl)c1)CO2 [Compound 95, 8-(1-(2-(azetidin-1-yl)-2-oxoethyl)-1H-pyrazol-4-yl)-N-tert-butyl-1-(3,5-dichlorophenyl)-7-methoxy-N-methyl-1,4-dihydrochromeno[4,3-c]pyrazole-3-carboxamide] | 0.01 to 0.1 µM | 0.01 to 0.1 µM |
| CONC(=O)c1cncc(-c2cc3c(cc2OC)OCc2c(C(=O)N4CCOCC4(C)C)nn(-c4cc(Cl)cc(Cl)c4)c2-3)c1 [Compound 96, 5-(1-(3,5-dichlorophenyl)-3-(3,3-dimethylmorpholine-4-carbonyl)-7-methoxy-1,4-dihydrochromeno[4,3-c]pyrazol-8-yl)-N-methoxynicotinamide] | < 0.01 µM | < 0.01 µM |
